Data on seven compounds can be found in ChEMBL document CHEMBL2417541, “Aromatic glucosides from the seeds of Prunus davidiana” (J Nat Prod, 2013).

One experiment relates to A2780. The experiment can be described thus: Cytotoxicity against human A2780 cells. It counts as cell-based.
Another experiment deals with HCT-8. The experiment can be described thus: Cytotoxicity against human HCT8 cells. Format: cell-based.
In experiment [1] the test system is Liver microsomes. The experiment can be described thus: Antioxidant activity in rat liver microsomes assessed as inhibition of Fe2+-cysteine-induced lipid peroxidation measured malondialdehyde level at 10^-6 M/L incubated for 15 mins prior to FeSO4 addition measured after 15 mins by TBA method relative to control. It counts as functional. The conditions noted are these: Microsome.

Experiment [2] has as its system Liver microsomes. The experiment can be described thus: Antioxidant activity in rat liver microsomes assessed as inhibition of Fe2+-cysteine-induced lipid peroxidation measured malondialdehyde level at 10^-5 M/L incubated for 15 mins prior to FeSO4 addition measured after 15 mins by TBA method relative to control. It counts as functional. The conditions noted are these: Microsome.

Experiment [3] deals with Liver microsomes. The experiment can be described thus: Antioxidant activity in rat liver microsomes assessed as inhibition of Fe2+-cysteine-induced lipid peroxidation measured malondialdehyde level at 10^-4 M/L incubated for 15 mins prior to FeSO4 addition measured after 15 mins by TBA method relative to control. Format: functional. The conditions noted are these: Microsome.

The test system of the next experiment is BGC-823. The experiment can be described thus: Cytotoxicity against human BGC823 cells. Format: cell-based.
The next experiment deals with A549. The experiment can be described thus: Cytotoxicity against human A549 cells. It counts as cell-based.
The subject of the next experiment is Bel-7402. The experiment can be described thus: Cytotoxicity against human Bel7402 cells. It counts as cell-based.

As to `O=C(OC[C@H]1O[C@@H](OC[C@H]2O[C@@H](OCc3ccccc3)[C@H](O)[C@@H](O)[C@@H]2O)[C@H](O)[C@@H](O)[C@@H]1O)c1ccccc1`, the IC50 in the experiment with A2780, in the experiment with HCT-8, in the experiment with BGC-823, in the experiment with A549 and with Bel-7402 was greater than 10 µM in each case. The results for the inhibition in the experiment with Liver microsomes [1], in the experiment with Liver microsomes [2] and in the experiment on Liver microsomes [3] were 59%, 50% and 55%, respectively.
In the case of `O=C(OC[C@H]1O[C@@H](OC[C@H]2O[C@@H](OC(=O)c3ccccc3)[C@H](O)[C@@H](O)[C@@H]2O)[C@H](O)[C@@H](O)[C@@H]1O)c1ccccc1`, the IC50 with A2780, in the experiment on HCT-8, in the experiment with BGC-823, in the experiment on A549 and with Bel-7402 was greater than 10 µM throughout. For the same compound, the figures for the inhibition with Liver microsomes [1], in the experiment on Liver microsomes [2] and with Liver microsomes [3] were 56%, 66% and 56%, respectively.
Take `O=C(OC[C@H]1O[C@@H](O[C@@H](C(=O)O)c2ccccc2)[C@H](O)[C@@H](O)[C@@H]1O)c1ccccc1`: the IC50 in the experiment with A2780, in the experiment with HCT-8, in the experiment with BGC-823, with A549 and in the experiment on Bel-7402 was greater than 10 µM each time. Also, the results for the inhibition in the experiment on Liver microsomes [1], in the experiment with Liver microsomes [2] and in the experiment on Liver microsomes [3] were 53%, 60% and 67%, respectively.
For `N#C[C@H](O[C@@H]1O[C@H](CO[C@@H]2O[C@H](COC(=O)c3cccnc3)[C@@H](O)[C@H](O)[C@H]2O)[C@@H](O)[C@H](O)[C@H]1O)c1ccccc1`, the IC50 in the experiment on A2780, in the experiment on HCT-8, in the experiment with BGC-823, in the experiment with A549 and with Bel-7402 was greater than 10 µM in each case. Besides, the inhibition in the experiment on Liver microsomes [1] is 56%; in the experiment with Liver microsomes [2], 67%; in the experiment with Liver microsomes [3], 88%.
`COc1cc(CO)ccc1O[C@@H]1O[C@H](COC(=O)c2ccccc2)[C@@H](O)[C@H](O)[C@H]1O`: the IC50 with A2780, with HCT-8, in the experiment with BGC-823, in the experiment with A549 and in the experiment on Bel-7402 was greater than 10 µM throughout. Also, the inhibition in the experiment on Liver microsomes [1] is 41%; with Liver microsomes [2], 42%; in the experiment with Liver microsomes [3], 51%.
In the case of `CCOC(=O)[C@H](O[C@@H]1O[C@H](CO[C@@H]2O[C@H](CO)[C@@H](O)[C@H](O)[C@H]2O)[C@@H](O)[C@H](O)[C@H]1O)c1ccccc1`, the 50% inhibitory concentration (IC50) in the experiment with A2780, in the experiment with HCT-8, with BGC-823, in the experiment on A549 and in the experiment with Bel-7402 was greater than 10 µM each time. Besides, the inhibition in the experiment on Liver microsomes [1] stood at 56%; with Liver microsomes [2], 51%; in the experiment on Liver microsomes [3], 51%.
Turning to `O=C(OC[C@H]1O[C@@H](OC[C@H](O)[C@@H](O)c2ccc(O)cc2)[C@H](O)[C@@H](O)[C@@H]1O)c1ccccc1`, the 50% inhibitory concentration (IC50) in the experiment on A2780, in the experiment on HCT-8, with BGC-823, in the experiment on A549 and in the experiment with Bel-7402 was greater than 10 µM throughout. The inhibition in the experiment with Liver microsomes [1] was 57%; with Liver microsomes [2] it was 64%; with Liver microsomes [3] it was 88%.
